As a reminder, the IC50 is the midpoint of a concentration-inhibition curve.

This assay addresses T1, human DGAT2 (Homo sapiens, UniProt Q96PD7).
T1 construct: FLAG (DYKDDDDK); made in house; host or cells: Sf-21 insect cells (BacPAK baculovirus system); membrane fraction used
T1 sequence (Q96PD7 1-388): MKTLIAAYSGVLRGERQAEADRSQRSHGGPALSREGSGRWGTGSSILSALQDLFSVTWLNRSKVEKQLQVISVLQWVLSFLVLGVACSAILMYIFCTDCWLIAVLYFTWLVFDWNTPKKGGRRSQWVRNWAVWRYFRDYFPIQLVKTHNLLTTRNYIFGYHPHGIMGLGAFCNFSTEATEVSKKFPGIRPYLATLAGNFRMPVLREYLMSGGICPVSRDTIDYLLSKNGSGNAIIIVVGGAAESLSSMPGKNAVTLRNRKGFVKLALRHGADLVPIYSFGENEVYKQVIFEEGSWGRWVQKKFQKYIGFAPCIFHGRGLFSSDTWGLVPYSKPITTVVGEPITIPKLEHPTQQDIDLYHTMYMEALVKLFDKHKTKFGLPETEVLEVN
Description: DGAT2 enzyme activity inhibition, Phospholipid FlashPlate SPA. The assay is classed as biochemical. Conditions: recombinant human DGAT2 membrane protein from Sf-21 cells; inhibition of [14C]-TG production; 37° C. An outline of the steps: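 Sf-21 membranes expressing recombinant human DGAT2 (2 μg) preincubated with compound (3 nM–10 μM, 1% DMSO) and 50 μM 1,2 sn-oleoyl glycerol, 20 min at 37 °C, then 1 μM [14C]oleoyl-CoA for 15 min. [14C]-TG counted by SPA; inhibition as % of untreated.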

`CCOc1ccccc1O[C@@H]1CCCN(c2nccc(Nc3cccc(-c4ccc(NCC(=O)O)cc4)n3)n2)C1` [Example 75, (R)-(4-(6-((2-(3-(2-ethoxyphenoxy)piperidin-1-yl)pyrimidin-4-yl)amino)pyridin-2-yl)phenyl)glycine]: the concentration for half-maximal inhibition (IC50) came out at 890 nM. `CCOc1ccccc1O[C@@H]1CCCN(c2ccnc(Nc3cccc(-c4ccc(NCC(=O)O)cc4)n3)n2)C1` [Example 76]: the IC50 came out at 300 nM. Regarding `CCOc1ccccc1O[C@@H]1CCCN(c2cncc(Nc3cccc(-c4ccc(NC(C)(C)C(=O)O)cc4)n3)n2)C1` [Example 77, (R)-2-((4-(6-((6-(3-(2-ethoxyphenoxy)piperidin-1-yl)pyrazin-2-yl)amino)pyridin-2-yl)phenyl)amino)-2-methylpropanoic Acid], the IC50 is 250 nM.

Turning to `CCOc1ccccc1O[C@@H]1CCCN(c2cncc(Nc3cccc(-c4cc(CC(C)(C)C(=O)O)ccc4F)n3)n2)C1` [Example 78, (R)-3-(3-(6-((6-(3-(2-ethoxyphenoxy)piperidin-1-yl)pyrazin-2-yl)amino)pyridin-2-yl)-4-fluorophenyl)-2,2-dimethylpropanoic Acid], the IC50 worked out at 290 nM. Take `CCOc1cccnc1O[C@@H]1CCCN(c2cncc(Nc3cccc(-c4cc(CC(C)(C)C(=O)O)ccc4F)n3)n2)C1` [Example 79, (R)-3-(3-(6-((6-(3-((3-ethoxypyridin-2-yl)oxy)piperidin-1-yl)pyrazin-2-yl)amino)pyridin-2-yl)-4-fluorophenyl)-2,2-dimethylpropanoic Acid]: the IC50 turned out to be 270 nM. Regarding `CCOc1ccccc1O[C@@H]1CCCN(c2cncc(Nc3cccc(-c4cccc(OC(C)(C)C(=O)O)c4)n3)n2)C1` [Example 80, (R)-2-(3-(6-((6-(3-(2-ethoxyphenoxy)piperidin-1-yl)pyrazin-2-yl)amino)pyridin-2-yl)phenoxy)-2-methylpropanoic Acid], the IC50 came to 310 nM.

For the compound `CCOc1cccnc1O[C@@H]1CCCN(c2cncc(Nc3cccc(-c4cccc(OC(C)(C)C(=O)O)c4)n3)n2)C1` [Example 81, (R)-2-(3-(6-((6-(3-((3-ethoxypyridin-2-yl)oxy)piperidin-1-yl)pyrazin-2-yl)amino)pyridin-2-yl)phenoxy)-2-methylpropanoic Acid], the half-inhibitory concentration (IC50) came to 200 nM. Under `CCOc1ccccc1O[C@@H]1CCCN(c2cncc(Nc3cccc(-c4ccc(OC(C)(C)C(=O)O)cc4)n3)n2)C1` [Example 82, (R)-2-(4-(6-((6-(3-(2-ethoxyphenoxy)piperidin-1-yl)pyrazin-2-yl)amino)pyridin-2-yl)phenoxy)-2-methylpropanoic Acid] stands 120 nM. As to `CCOc1cccnc1O[C@@H]1CCCN(c2cncc(Nc3cccc(-c4ccc(OC(C)(C)C(=O)O)cc4)n3)n2)C1` [Example 83, (R)-2-(4-(6-((6-(3-((3-ethoxypyridin-2-yl)oxy)piperidin-1-yl)pyrazin-2-yl)amino)pyridin-2-yl)phenoxy)-2-methylpropanoic Acid], the IC50 stood at 500 nM. As to `CCOc1ccccc1O[C@@H]1CCCN(c2cncc(Nc3cccc(-c4cc(OC(C)(C)C(=O)O)ccc4F)n3)n2)C1` [Example 84, (R)-2-(3-(6-((6-(3-(2-ethoxyphenoxy)piperidin-1-yl)pyrazin-2-yl)amino)pyridin-2-yl)-4-fluorophenoxy)-2-methylpropanoic Acid], the IC50 worked out at 400 nM.

In the case of `CCOc1cccnc1O[C@@H]1CCCN(c2cncc(Nc3cccc(-c4cc(OC(C)(C)C(=O)O)ccc4F)n3)n2)C1` [Example 85, (R)-2-(3-(6-((6-(3-((3-ethoxypyridin-2-yl)oxy)piperidin-1-yl)pyrazin-2-yl)amino)pyridin-2-yl)-4-fluorophenoxy)-2-methylpropanoic Acid], the IC50 was determined as 220 nM. `CCOc1ccccc1O[C@@H]1CCCN(c2cncc(Nc3cccc(-c4cnn(CC(C)(C)C(=O)O)c4)n3)n2)C1` [Example 86, (R)-3-(4-(6-((6-(3-(2-ethoxyphenoxy)piperidin-1-yl)pyrazin-2-yl)amino)pyridin-2-yl)-1H-pyrazol-1-yl)-2,2-dimethylpropanoic Acid]: the IC50 turned out to be 300 nM. In the case of `CCOc1ccccc1O[C@@H]1CCCN(c2cncc(Nc3cccc(Oc4cccc(C(=O)O)c4)n3)n2)C1` [Example 87, (R)-3-((6-((6-(3-(2-ethoxyphenoxy)piperidin-1-yl)pyrazin-2-yl)amino)pyridin-2-yl)oxy)benzoic Acid], the IC50 worked out at 500 nM. Under `CCOc1cccnc1O[C@@H]1CCCN(c2cncc(Nc3cccc(Oc4cccc(C(=O)O)c4)n3)n2)C1` [Example 88, (R)-3-((6-((6-(3-((3-ethoxypyridin-2-yl)oxy)piperidin-1-yl)pyrazin-2-yl)amino)pyridin-2-yl)oxy)benzoic Acid] stands 1300 nM; under `CCOc1ccccc1O[C@@H]1CCCN(c2cncc(Nc3cccc(Oc4ccc(C(=O)O)cc4)n3)n2)C1` [Example 89, (R)-4-((6-((6-(3-(2-ethoxyphenoxy)piperidin-1-yl)pyrazin-2-yl)amino)pyridin-2-yl)oxy)benzoic Acid], 1200 nM; under `CCOc1cccnc1O[C@@H]1CCCN(c2cncc(Nc3cccc(Oc4ccc(C(=O)O)cc4)n3)n2)C1` [Example 90, (R)-4-((6-((6-(3-((3-ethoxypyridin-2-yl)oxy)piperidin-1-yl)pyrazin-2-yl)amino)pyridin-2-yl)oxy)benzoic Acid], 1200 nM. For the compound `CCOc1ccccc1O[C@@H]1CCCN(c2cncc(Nc3cccc(Oc4cccc(C(C)(C)C(=O)O)c4)n3)n2)C1` [Example 91, (R)-2-(3-((6-((6-(3-(2-ethoxyphenoxy)piperidin-1-yl)pyrazin-2-yl)amino)pyridin-2-yl)oxy)phenyl)-2-methylpropanoic Acid], the IC50 amounted to 340 nM. As for `CCOc1cccnc1O[C@@H]1CCCN(c2cncc(Nc3cccc(Oc4cccc(C(C)(C)C(=O)O)c4)n3)n2)C1` [Example 92, (R)-2-(3-((6-((6-(3-((3-ethoxypyridin-2-yl)oxy)piperidin-1-yl)pyrazin-2-yl)amino)pyridin-2-yl)oxy)phenyl)-2-methylpropanoic Acid], the IC50 stood at 300 nM. In the case of `CCOc1ccccc1O[C@@H]1CCCN(c2cncc(Nc3cccc(Oc4ccc(C(C)(C)C(=O)O)cc4)n3)n2)C1` [Example 93, (R)-2-(4-((6-((6-(3-(2-ethoxyphenoxy)piperidin-1-yl)pyrazin-2-yl)amino)pyridin-2-yl)oxy)phenyl)-2-methylpropanoic Acid], the IC50 came to 170 nM. For `CCOc1cccnc1O[C@@H]1CCCN(c2cncc(Nc3cccc(Oc4ccc(C(C)(C)C(=O)O)cc4)n3)n2)C1` [Example 94, (R)-2-(4-((6-((6-(3-((3-ethoxypyridin-2-yl)oxy)piperidin-1-yl)pyrazin-2-yl)amino)pyridin-2-yl)oxy)phenyl)-2-methylpropanoic Acid], the IC50 was 230 nM. As for `CCOc1ccccc1O[C@@H]1CCCN(c2cncc(Nc3cccc(Oc4cccc(CC(=O)O)c4)n3)n2)C1` [Example 95, (R)-2-(3-((6-((6-(3-(2-ethoxyphenoxy)piperidin-1-yl)pyrazin-2-yl)amino)pyridin-2-yl)oxy)phenyl)acetic Acid], the IC50 was 83 nM. With `CCOc1cccnc1O[C@@H]1CCCN(c2cncc(Nc3cccc(Oc4cccc(CC(=O)O)c4)n3)n2)C1` [Example 96, (R)-2-(3-((6-((6-(3-((3-ethoxypyridin-2-yl)oxy)piperidin-1-yl)pyrazin-2-yl)amino)pyridin-2-yl)oxy)phenyl)acetic Acid], the IC50 was determined as 87 nM. For the compound `CCOc1ccccc1O[C@@H]1CCCN(c2cncc(Nc3cccc(Oc4ccc(CC(=O)O)cc4)n3)n2)C1` [Example 97, (R)-2-(4-((6-((6-(3-(2-ethoxyphenoxy)piperidin-1-yl)pyrazin-2-yl)amino)pyridin-2-yl)oxy)phenyl)acetic Acid], the IC50 was determined as 900 nM. On to `CCOc1cccnc1O[C@@H]1CCCN(c2cncc(Nc3cccc(Oc4ccc(CC(=O)O)cc4)n3)n2)C1` [Example 98, (R)-2-(4-((6-((6-(3-((3-ethoxypyridin-2-yl)oxy)piperidin-1-yl)pyrazin-2-yl)amino)pyridin-2-yl)oxy)phenyl)acetic Acid], for which the IC50 came out at 490 nM. With `CCOc1ccccc1O[C@@H]1CCCN(c2cncc(Nc3cccc(OCc4ccc(C(=O)O)cc4)n3)n2)C1` [Example 99, (R)-4-(((6-((6-(3-(2-ethoxyphenoxy)piperidin-1-yl)pyrazin-2-yl)amino)pyridin-2-yl)oxy)methyl)benzoic Acid], the IC50 turned out to be 570 nM. Under `CCOc1ccccc1O[C@@H]1CCCN(c2cncc(Nc3nc(-c4cccc(CC(C)(C)C(=O)O)c4)ccc3F)n2)C1` [Example 100, (R)-3-(3-(6-((6-(3-(2-ethoxyphenoxy)piperidin-1-yl)pyrazin-2-yl)amino)-5-fluoropyridin-2-yl)phenyl)-2,2-dimethylpropanoic Acid] stands 430 nM; under `CCOc1cccnc1O[C@@H]1CCCN(c2cncc(Nc3nc(-c4cccc(CC(C)(C)C(=O)O)c4)ccc3F)n2)C1` [Example 101, (R)-3-(3-(6-((6-(3-((3-ethoxypyridin-2-yl)oxy)piperidin-1-yl)pyrazin-2-yl)amino)-5-fluoropyridin-2-yl)phenyl)-2,2-dimethylpropanoic Acid], 190 nM.

The record behind these values is US12630528B2, “Amino aryl derivative useful as diacylglycerol acyltransferase 2 inhibitor and use thereof” (LG CHEM, LTD., priority 2019, dated 2026).
